Data from BigSolDB 2.1.

Nc1nc(N)nc(NC2CC2)n1
Details	solubility (mole fraction)
in acetic acid, 293.15 K	0.0128
in acetic acid, 298.15 K	0.0155
in acetic acid, 303.15 K	0.0187
in acetic acid, 308.15 K	0.0227
in acetic acid, 313.15 K	0.0275
in acetic acid, 318.15 K	0.033
in acetic acid, 323.15 K	0.0395
in acetic acid, 328.15 K	0.0471
in acetic acid, 333.15 K	0.0562
in acetone, 283.15 K	0.000486
in acetone, 288.15 K	0.000535
in acetone, 293.15 K	0.000617
in acetone, 298.15 K	0.00071
in acetone, 303.15 K	0.000805
in acetone, 308.15 K	0.00091
in acetone, 313.15 K	0.00103
in acetone, 318.15 K	0.00114
in acetone, 323.15 K	0.00127
in acrylic acid, 293.15 K	0.0341
in acrylic acid, 298.15 K	0.0413
in acrylic acid, 303.15 K	0.0492
in acrylic acid, 308.15 K	0.0581
in acrylic acid, 313.15 K	0.0683
in acrylic acid, 318.15 K	0.0785
in acrylic acid, 323.15 K	0.09
in acrylic acid, 328.15 K	0.101
in acrylic acid, 333.15 K	0.112
in ethanol, 283.15 K	0.000916
in ethanol, 288.15 K	0.00107
in ethanol, 293.15 K	0.00127
in ethanol, 298.15 K	0.00149
in ethanol, 303.15 K	0.00172
in ethanol, 308.15 K	0.00205
in ethanol, 313.15 K	0.00253
in ethanol, 318.15 K	0.00299
in ethanol, 323.15 K	0.00355
in isobutanol, 283.15 K	0.000396
in isobutanol, 288.15 K	0.000483
in isobutanol, 293.15 K	0.000594
in isobutanol, 298.15 K	0.000702
in isobutanol, 303.15 K	0.00084
in isobutanol, 308.15 K	0.000983
in isobutanol, 313.15 K	0.00115
in isobutanol, 318.15 K	0.00131
in isobutanol, 323.15 K	0.0015
in isopentanol, 283.15 K	0.000469
in isopentanol, 288.15 K	0.000592
in isopentanol, 293.15 K	0.000725
in isopentanol, 298.15 K	0.00087
in isopentanol, 303.15 K	0.00104
in isopentanol, 308.15 K	0.00127
in isopentanol, 313.15 K	0.00148
in isopentanol, 318.15 K	0.0018
in isopentanol, 323.15 K	0.00214
in isopropanol, 283.15 K	0.000465
in isopropanol, 288.15 K	0.000529
in isopropanol, 293.15 K	0.000638
in isopropanol, 298.15 K	0.000751
in isopropanol, 303.15 K	0.000915
in isopropanol, 308.15 K	0.00109
in isopropanol, 313.15 K	0.00125
in isopropanol, 318.15 K	0.00146
in isopropanol, 323.15 K	0.00172
in methanol, 283.15 K	0.00199
in methanol, 288.15 K	0.00224
in methanol, 293.15 K	0.00251
in methanol, 298.15 K	0.00279
in methanol, 303.15 K	0.0031
in methanol, 308.15 K	0.00344
in methanol, 313.15 K	0.00378
in methanol, 318.15 K	0.00416
in methanol, 323.15 K	0.00456
in n-butanol, 283.15 K	0.00073
in n-butanol, 288.15 K	0.000871
in n-butanol, 293.15 K	0.00104
in n-butanol, 298.15 K	0.00126
in n-butanol, 303.15 K	0.0015
in n-butanol, 308.15 K	0.00179
in n-butanol, 313.15 K	0.00217
in n-butanol, 318.15 K	0.00262
in n-butanol, 323.15 K	0.0031
in n-heptanol, 283.15 K	0.000235
in n-heptanol, 288.15 K	0.000322
in n-heptanol, 293.15 K	0.000422
in n-heptanol, 298.15 K	0.000556
in n-heptanol, 303.15 K	0.000737
in n-heptanol, 308.15 K	0.000957
in n-heptanol, 313.15 K	0.00124
in n-heptanol, 318.15 K	0.00162
in n-heptanol, 323.15 K	0.00213
in n-hexanol, 283.15 K	0.000534
in n-hexanol, 288.15 K	0.000661
in n-hexanol, 293.15 K	0.000816
in n-hexanol, 298.15 K	0.001
in n-hexanol, 303.15 K	0.00123
in n-hexanol, 308.15 K	0.00151
in n-hexanol, 313.15 K	0.00185
in n-hexanol, 318.15 K	0.00227
in n-hexanol, 323.15 K	0.00279
in n-pentanol, 283.15 K	0.000671
in n-pentanol, 288.15 K	0.000818
in n-pentanol, 293.15 K	0.000981
in n-pentanol, 298.15 K	0.00119
in n-pentanol, 303.15 K	0.00142
in n-pentanol, 308.15 K	0.00171
in n-pentanol, 313.15 K	0.00204
in n-pentanol, 318.15 K	0.00245
in n-pentanol, 323.15 K	0.00291
in n-propanol, 283.15 K	0.000809
in n-propanol, 288.15 K	0.000927
in n-propanol, 293.15 K	0.00113
in n-propanol, 298.15 K	0.00136
in n-propanol, 303.15 K	0.00163
in n-propanol, 308.15 K	0.00191
in n-propanol, 313.15 K	0.00237
in n-propanol, 318.15 K	0.00281
in n-propanol, 323.15 K	0.00327
in propionic acid, 278.15 K	0.00472
in propionic acid, 283.15 K	0.00562
in propionic acid, 288.15 K	0.00697
in propionic acid, 293.15 K	0.00847
in propionic acid, 298.15 K	0.0101
in propionic acid, 303.15 K	0.0123
in propionic acid, 308.15 K	0.0148
in propionic acid, 313.15 K	0.0177
in propionic acid, 318.15 K	0.0212
in sec-butanol, 283.15 K	0.000301
in sec-butanol, 288.15 K	0.00038
in sec-butanol, 293.15 K	0.00048
in sec-butanol, 298.15 K	0.000581
in sec-butanol, 303.15 K	0.000686
in sec-butanol, 308.15 K	0.000846
in sec-butanol, 313.15 K	0.000995
in sec-butanol, 318.15 K	0.0012
in sec-butanol, 323.15 K	0.00147
in water, 283.15 K	0.000931
in water, 288.15 K	0.00108
in water, 293.15 K	0.00125
in water, 298.15 K	0.00144
in water, 303.15 K	0.00166
in water, 308.15 K	0.00193
in water, 313.15 K	0.00221
in water, 318.15 K	0.00254
in water, 323.15 K	0.00293
